Changes are numbered by the printed parent chain. pEC50, pIC50: −log10 of the molar value. Values after ≈ are worked out from the molar mass of the structure shown. Values belong to the compound of their own block, whether it stands above or below them. Active and inactive are the calls of the source. No cut-off for these calls is given here.
How the values were obtained:
[1] = target: T1, Peroxisome proliferator-activated receptor gamma (Homo sapiens, UniProt P37231)
T1 sequence (P37231 whole entry): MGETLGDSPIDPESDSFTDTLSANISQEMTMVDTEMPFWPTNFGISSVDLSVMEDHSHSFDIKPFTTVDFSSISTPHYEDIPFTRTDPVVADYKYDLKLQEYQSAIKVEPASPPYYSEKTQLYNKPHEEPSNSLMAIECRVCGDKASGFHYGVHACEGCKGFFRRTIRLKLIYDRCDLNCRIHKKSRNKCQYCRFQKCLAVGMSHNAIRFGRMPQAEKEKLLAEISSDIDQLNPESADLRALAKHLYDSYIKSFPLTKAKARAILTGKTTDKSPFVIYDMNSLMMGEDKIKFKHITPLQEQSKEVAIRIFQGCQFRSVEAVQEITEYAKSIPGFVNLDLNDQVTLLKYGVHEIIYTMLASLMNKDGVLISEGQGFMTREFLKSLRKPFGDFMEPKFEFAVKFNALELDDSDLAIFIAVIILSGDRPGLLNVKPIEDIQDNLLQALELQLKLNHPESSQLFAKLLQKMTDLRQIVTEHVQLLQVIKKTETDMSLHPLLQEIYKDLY
Description: Partial agonist activity at human PPARgamma-LBD expressed in CHO-K1 cells co-transfected with GAL4 assessed as luciferase activity by transactivation assay

Mus musculus [2] = assay: Antidiabetic activity in db/db mouse assessed as weight gain at 10 to 100 mg/kg, po qd for 7 days; format: functional, organism-based
Mus musculus [3] = assay: Antidiabetic activity in db/db mouse assessed as reduction of plasma glucose level at 100 mg/kg, po qd for 7 days; format: functional; design: scale not given: the % may be the effect or the level left
Mus musculus [4] = assay: Antidiabetic activity in db/db mouse assessed as reduction of plasma glucose level at 30 mg/kg, po qd for 7 days; format: functional; design: scale not given: the % may be the effect or the level left
Mus musculus [5] = assay: Antidiabetic activity in db/db mouse assessed as reduction of plasma glucose level at 10 mg/kg, po qd for 7 days; format: functional; design: scale not given: the % may be the effect or the level left
[6] = Oral bioavailability in mouse at 1 mg/kg; format: ADME, organism-based; conditions: in vivo
[7] = AUC in mouse at 1 mg/kg, iv; format: ADME, organism-based; design: dose 1 mg/kg, route intravenous; conditions: plasma
[8] = Half life in mouse at 1 mg/kg, iv; format: ADME, organism-based; design: dose 1 mg/kg, route intravenous; conditions: in vivo
[9] = Volume of distribution in mouse at 1 mg/kg, iv; format: ADME, organism-based; design: dose 1 mg/kg, route intravenous; conditions: in vivo
[10] = Clearance in mouse at 1 mg/kg, iv; format: ADME, organism-based; design: dose 1 mg/kg, route intravenous; conditions: in vivo
3T3-L1 [11] = assay: Induction of adipogenesis in mouse blast 3T3L1 cells assessed as P2 mRNA expression level after 7 days […]; format: cell-based; conditions: 3t3-l1, 168 h
[12] = Solubility in water; format: physicochemical
[13] = AUC in mouse at 1 mg/kg, po; format: ADME, organism-based; design: dose 1 mg/kg, route oral; conditions: plasma
[14] = Plasma concentration in mouse at 1 mg/kg, iv after 10 mins; format: ADME, organism-based; design: dose 1 mg/kg, route intravenous
[15] = target: T2, Peroxisome proliferator-activated receptor gamma (Rattus norvegicus, UniProt O88275)
T2 sequence (O88275 whole entry): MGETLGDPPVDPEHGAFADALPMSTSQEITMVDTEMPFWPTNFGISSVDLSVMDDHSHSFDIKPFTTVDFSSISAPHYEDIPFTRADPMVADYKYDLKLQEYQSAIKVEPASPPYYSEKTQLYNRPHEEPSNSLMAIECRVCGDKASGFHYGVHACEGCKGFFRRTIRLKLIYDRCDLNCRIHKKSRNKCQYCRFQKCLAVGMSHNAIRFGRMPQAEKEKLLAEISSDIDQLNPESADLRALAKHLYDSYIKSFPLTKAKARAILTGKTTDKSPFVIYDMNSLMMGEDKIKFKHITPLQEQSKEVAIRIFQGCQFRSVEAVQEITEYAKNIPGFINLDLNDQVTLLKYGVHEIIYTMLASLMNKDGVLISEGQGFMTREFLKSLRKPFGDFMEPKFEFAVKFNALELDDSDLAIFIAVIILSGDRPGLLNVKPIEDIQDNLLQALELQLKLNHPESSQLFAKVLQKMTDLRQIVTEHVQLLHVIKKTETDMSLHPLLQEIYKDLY
Description: Antagonist activity at rat PPARgamma-LBD expressed in CHO-K1 cells co-transfected with GAL4 assessed as inhibition of rosiglitazone-induced luciferase activity by transactivation assay

[16] = target: T1, Peroxisome proliferator-activated receptor gamma; remark: listed apart in the source
Description: Antagonist activity at human PPARgamma-LBD expressed in CHO-K1 cells co-transfected with GAL4 assessed as inhibition of rosiglitazone-induced luciferase activity by transactivation assay

[17] = target: T2, Peroxisome proliferator-activated receptor gamma; remark: listed apart in the source
Description: Partial agonist activity at rat PPARgamma-LBD expressed in CHO-K1 cells co-transfected with GAL4 assessed as luciferase activity by transactivation assay

[18] = target: T3, Peroxisome proliferator-activated receptor gamma (Mus musculus, UniProt P37238)
T3 sequence (P37238 whole entry): T2 sequence (O88275 whole entry) with P8S, D54E, S383N
Description: Antagonist activity at mouse PPARgamma-LBD expressed in CHO-K1 cells co-transfected with GAL4 assessed as inhibition of rosiglitazone-induced luciferase activity by transactivation assay

[19] = target: T3, Peroxisome proliferator-activated receptor gamma; remark: listed apart in the source
Description: Partial agonist activity at mouse PPARgamma-LBD expressed in CHO-K1 cells co-transfected with GAL4 assessed as luciferase activity by transactivation assay

3T3-L1 [20] = assay: Induction of adipogenesis in mouse 3T3L1 cells assessed as increase in lipid accumulation by Oil red O staining
[21] = target: T4, Peroxisome proliferator-activated receptor gamma (Homo sapiens) (UniProt P37231); assay: Partial agonist activity at human PPARgamma-LBD expressed in CHO-K1 cells co-transfected with GAL4 assessed as luciferase activity at 10 uM by transactivation assay; format: functional, cell-based
T4 sequence (whole entry): T1 sequence (P37231 whole entry)

[22] = target: T4, Peroxisome proliferator-activated receptor gamma (Homo sapiens); assay: Partial agonist activity at human PPARgamma-LBD expressed in CHO-K1 cells co-transfected with GAL4 assessed as luciferase activity at […] by transactivation assay relative to rosiglitazone; format: functional, cell-based
Mus musculus [23] = assay: Antidiabetic activity in db/db mouse assessed as weight gain at 3 to 10 mg/kg, po qd for 7 days; format: functional, organism-based
3T3-L1 [24] = assay: Induction of adipogenesis in mouse mature 3T3L1 cells assessed as P2 mRNA expression level after 10 days […]; format: cell-based; conditions: 3t3-l1, 240 h

SMILES: CSc1nc(NCc2cccnc2)c(C(=O)O)c(SCc2ccccc2)n1
pEC50 [1]: 6.13

SMILES: CSc1nc(SCc2ccccc2)c(C(=O)O)c(SCc2ccccc2)n1
Activity (Mus musculus [2]): inactive
Activity (Mus musculus [3]): 77%
Activity (Mus musculus [4]): 56%
Activity (Mus musculus [5]): 27%
bioavailability [6]: 35.8%
AUC [7]: 8860 ng·h/mL
half-life [8]: 45.6 min
Vd [9]: 0.12 L/kg
clearance [10]: 1.88 mL/min/kg
Activity (3T3-L1 [11]): Not Active
solubility [12]: 43.7 µg/mL (≈ 105 µM)
AUC [13]: 3170 ng·h/mL
concentration at 10 min [14]: 6890 ng/mL
pIC50 [15]: 6.27
pIC50 [16]: 5.75
pEC50 [17]: 6.80
pEC50 [1]: 6.85
pIC50 [18]: 5.75
pEC50 [19]: 6.80
Activity (3T3-L1 [20]): Active

SMILES: CCCCSc1nc(NCc2ccccc2)c(C(=O)O)c(SCc2ccccc2)n1
pEC50 [1]: 6.26

SMILES: CCCCCCCCSc1nc(NCc2ccccc2)c(C(=O)O)c(SCc2ccccc2)n1
pEC50 [1]: 6.02

SMILES: CSc1nc(NC2CC2)c(C(=O)O)c(SCc2ccccc2)n1
pEC50 [1]: 5.74

SMILES: CSc1nc(NCCc2ccccc2)c(C(=O)O)c(SCc2ccccc2)n1
pEC50 [1]: 6.17

SMILES: CCCCCCCNc1nc(NCc2ccccc2)c(C(=O)O)c(SCc2ccccc2)n1
pEC50 [1]: 6.60

SMILES: CSc1nc(NCC2CCCCC2)c(C(=O)O)c(SCc2ccccc2)n1
pEC50 [1]: 6.52

SMILES: CCCCN(CCCC)c1nc(NCc2ccccc2)c(C(=O)O)c(SCc2ccccc2)n1
pEC50 [1]: < 5.00

SMILES: CCCCN(C)c1nc(NCc2ccccc2)c(C(=O)O)c(SCc2ccccc2)n1
pEC50 [1]: 6.38

SMILES: CSc1nc(NCc2ccccc2)c(C(=O)O)c(SCc2ccccc2)n1
solubility [12]: < 1 µg/mL
pEC50 [1]: 6.74

SMILES: CCCCNc1nc(NCc2ccccc2)c(C(=O)O)c(SCc2ccccc2)n1
pEC50 [1]: 6.33

SMILES: O=C(O)c1c(NCc2ccccc2)ncnc1SCc1ccccc1
pEC50 [1]: < 5.00

SMILES: CSc1nc(NCc2ccccn2)c(C(=O)O)c(SCc2ccccc2)n1
pEC50 [1]: 6.60

SMILES: CN(CCOc1ccc(CC2SC(=O)NC2=O)cc1)c1ccccn1 (stereo not drawn) [ROSIGLITAZONE]
Activity (Mus musculus [23]): inactive
Activity (Mus musculus [5]): 67%
Activity (3T3-L1 [24]): Dose-dependent effect
Activity (3T3-L1 [11]): Dose-dependent effect
Activity (3T3-L1 [20]): Active

Now from value to compound:

pEC50 [1]: 5.80
SMILES: CSc1nc(Nc2ccccc2)c(C(=O)O)c(SCc2ccccc2)n1

pEC50 [1]: 5.30
SMILES: CSc1nc(Cl)c(C(=O)NCc2ccccc2)c(NCc2ccccc2)n1

pEC50 [1]: 5.64
SMILES: CSc1nc(NCc2ccccc2)c(C(=O)O)c(OCc2ccccc2)n1

pEC50 [1]: < 5.00
SMILES: CCCNc1nc(SC)nc(SCc2ccccc2)c1C(=O)O

Activity [21]: inactive
SMILES: CSc1nc(C)c(C(=O)NCc2ccccc2)c(NCc2ccccc2)n1

pEC50 [1]: < 5.00
SMILES: CNc1nc(SC)nc(SCc2ccccc2)c1C(=O)O

pEC50 [1]: 5.57
SMILES: CSc1nc(NCc2ccncc2)c(C(=O)O)c(SCc2ccccc2)n1

Activity [22]: inactive
pEC50 [1]: < 5.00
SMILES: CSc1nc(NCc2ccccc2)c(C(=O)O)c(-c2cccs2)n1

— ChEMBL document CHEMBL1177724, “Design, synthesis, and structure-activity relationship studies of novel 2,4,6-trisubstituted-5-pyrimidinecarboxylic acids as peroxisome proliferator-activated receptor gamma (PPARgamma) partial agonists with comparable antidiabetic efficacy to rosiglitazone” (J Med Chem, 2010)
